# Experimental data as given in patent publication US10130571B2, “Dentifrice Comprising Zinc-Amino Acid Complex and Phosphates” (Colgate-Palmolive Company, priority 2014, dated 2018).
# Test system: biofilms
# Assay: Biofilm formation on HAP discs pre-treated with a simple solution of lysine
# Format: cell-based
# Conditions: after 48 h, visual
# Source text: We pre-treated HAP discs with a simple solution of lysine to see how an overabundance of free lysine would affect biofilm formation.
compound,measurement,value
NCCCC[C@H](N)C(=O)O [lysine],appearance of biofilms after lysine pre-treatment,visually were overgrown
